Data taken from publication PMC5113031, “Variant Exported Blood-Stage Proteins Encoded by Plasmodium Multigene Families Are Expressed in Liver Stages Where They Are Exported into the Parasitophorous Vacuole” (PLoS Pathogens, 2016).

Target: T1, P. falciparum Fam-A (PF3D7_1463500) (Plasmodium falciparum, UniProt Q8IKK1)
T1 construct: region encoding START domain, codon-optimised, cloned in pMALc2x, N-terminal His6, E. coli BL21(DE3), Ni and SEC, monomeric
Experiment: […]-PC transfer from donor to acceptor vesicles
Assay type: biochemical
Conditions: pH 7.4, 37 °C, 30 min, 25 μg/ml protein, BSA 1 mg/ml; labelled compound (14C)

T1 sequence (Q8IKK1 entry or part of it): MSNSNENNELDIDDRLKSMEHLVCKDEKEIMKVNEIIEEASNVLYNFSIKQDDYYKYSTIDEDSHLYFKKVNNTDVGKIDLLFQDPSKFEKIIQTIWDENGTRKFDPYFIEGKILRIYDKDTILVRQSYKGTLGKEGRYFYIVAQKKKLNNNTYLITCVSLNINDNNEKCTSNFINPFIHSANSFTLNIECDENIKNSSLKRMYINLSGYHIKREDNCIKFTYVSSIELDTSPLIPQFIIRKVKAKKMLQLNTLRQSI

## CCCCCCCCCCCCCCCC(=O)OC[C@H](COP(=O)([O-])OCC[N+](C)(C)C)OC(=O)CCCCCCCCCCCCCCC [L-α-DiPalmitoyl-Phosphatidylcholine]
  PC transfer activity: P. falciparum Fam-A reproducibly showed a lower, but detectable, level of PC transfer activity
